The test system of one assay is IBS. Particulars: literature report (ref. 21); cited from earlier work.
For assay [1], the system named is intestinal transit in dogs. Kind of assay: Intestinal transit in dogs with duodenal and mid-gut fistulas after bolus delivery of gas to the distal gut (99mTc-DTPA recovery). Type of assay: in vivo. To be noted: 180 ml bolus to the distal gut at time 0, n=three dogs. The procedure: In dogs equipped with duodenal (10 cm from pylorus) and mid-gut (160 cm from pylorus) fistulas, intestinal transit was compared across an isolated 150 cm test segment (between fistulas) while the proximal segment of the gut was perfused with pH 7.0 phosphate buffer at 2 mL/min for 90 minutes. Room air (n=three dogs) or methane (n=three dogs) was delivered into the distal gut as a 180-ml bolus at time 0. Sixty minutes after the start of the perfusion, 20 μCi of ^99mTc-DTPA (diethylenetriaminepentaacetic acid) was delivered as a bolus into the proximal segment of the gut. Intestinal transit was then measured by counting the radioactivity of 1 ml samples collected every 5 minutes from the diverted output of the mid-gut fistula. Intestinal transit was calculated by determining the area under the curve (AUC) of the cumulative percent recovery of the radioactive marker in the control (air administration) and experimental (methane administration) dogs. The square root values of the AUC (Sqrt AUC), where 0=no recovery by 30 minutes and 47.4=theoretical, instantaneous complete recovery by time 0, were compared for the control and experimental animals, using 2-way repeated measures ANOVA.

Assay [2] relates to irritable bowel syndrome (IBS) subjects. Kind of assay: Double-blind, randomized, placebo-controlled study of neomycin in IBS subjects (symptom questionnaire and lactulose breath test). Type of assay: in vivo, human. To be noted: for patient-reported bowel normalization / reduction in composite score (CS): mean ± S.E. An excerpt: In a double-blind, randomized, placebo-controlled study, we confirm that an abnormal lactulose breath test is more prevalent in IBS than normal controls, and that antibiotic treatment in IBS leads to an improvement in symptoms and that this is based on antibiotic-induced normalization of breath test. […] This is another important step in linking SIBO and IBS.
Study subjects were recruited by advertising in local newspapers, radio and IBS support groups throughout the greater Los Angeles area. To avoid referral bias, subjects were not recruited through the GI motility clinic or any gastroenterology practice based at Cedars-Sinai Medical Center. Subjects were included if they met Rome I criteria for IBS (7). […] Subjects were excluded if they had antibiotics within the previous three months, a previous lactulose breath test (LBT), or a history of diabetes, thyroid disease, intestinal surgery (except cholecystectomy or appendectomy), connective tissue disease, narcotic use or known gastrointestinal disease. Subjects with renal insufficiency, hearing impairment, probiotic use or allergy to aminoglycosides were also excluded. Approval from the institutional review board and written informed consent from the participating subjects were obtained.
Subjects presented to the GI Motility Laboratory having fasted from 7:00 p.m. the night before. They were instructed not to ingest legumes or a heavy meal for dinner the night prior to evaluation. Good oral hygiene was recommended and smoking was not permitted on the day of testing.
Prior to the LBT, subjects completed a symptom questionnaire asking them to grade nine IBS symptoms (abdominal pain, diarrhea, constipation, bloating, sense of incomplete evacuation, straining, urgency, mucus and gas) on a severity score of 0-5 as has been previously used and recommended (15-17). All questions were answered based on their recall of the preceding 7 days (17).
Subjects then underwent a LBT by ingesting 10 g of lactulose (Inalco Spa, Milano, Italy, packaged by Xactdose Inc., South Beloit, Ill.) followed by 1-2 ounces of water after an initial baseline breath sample. Breath samples were then collected at 15 minute intervals for 180 minutes. End expiratory breath samples were taken to ensure alveolar gas sampling. Samples were analyzed for hydrogen, methane and carbon dioxide using a Model SC, Quintron gas chromatograph (Quintron Instrument Company, Milwaukee, Wis.). Carbon dioxide measurements were used to correct for the quality of alveolar sampling. Measurements were plotted graphically as previously described (12). Patients and investigators were blinded to the result of the breath test.
All subjects were randomized by personnel not associated with the study to receive, in a double blind fashion, either neomycin (500 mg) (Teva pharmaceuticals, USA, Sellersville, Pa.) or matching placebo twice daily for 10 days. Seven days after completion of the antibiotic or placebo, subjects returned for a repeat questionnaire and LBT. A seven day follow up was chosen since in our experience the abnormal breath test in IBS can recur as early as two weeks after antibiotic normalization. As part of the follow up questionnaire, subjects were asked to subjectively rate the amount of improvement they experienced as a percent normalization of bowel function and repeated their perceived severity of the 9 bowel symptoms described earlier. Compliance was assessed by pill count. To comply with institutional review board requirements, follow-up LBT results could not be blinded so patients could seek appropriate medical therapy for their test result.
At the completion of enrollment, all initial and follow-up breath tests were coded and randomized by personnel not involved in the interpretation of the test. A blinded reviewer (M.P.) interpreted the results and was asked to categorize the breath tests based on whether the test met the criteria for normal LBT. […]

On to `Cc1ncc([N+](=O)[O-])n1CCO` [flagyl], for which the “reduction of clinical symptoms in IBS versus placebo” value with IBS is “superior to placebo”.

For `C` [methane], the results for the “effect on rate of intestinal transit versus room air control” value in assay [1] and in assay [1] (listed as Methane) were “substantially slowed the rate of intestinal transit” and “slowed intestinal transit”, respectively.

As for neomycin, the figures for the patient-reported bowel normalization in assay [2] (91 subjects who completed the question) and in assay [2] (subgroup with abnormal initial breath tests) were 40.1±5.3% and 44.8±5.6%, respectively. In addition, the “subjects achieving normalization of LBT” value in assay [2] (abnormal baseline LBT, complete data, 8 out of 41) is recorded as 20%. Moreover, the “self-reported percent bowel normalization” value in assay [2] (abnormal baseline LBT, neomycin but not successful normalization of LBT) is listed as 36.7±6.1%; in assay [2] (abnormal baseline LBT, normal follow up LBT after neomycin), 75.0±6.4%. For the same compound, the “percent reduction in CS” value is on record as 34.4±6.2% in assay [2] (abnormal baseline LBT, neomycin-treated group that did not achieve LBT normalization) and 61.7±9.4% in assay [2] (abnormal baseline LBT, neomycin-treated group with LBT normalization). The “subjects with true clinical response (≧50% improvement in CS)” value is listed as 43% in assay [2] (all subjects receiving neomycin, 24 out of 55) and 46% in assay [2] (subgroup with abnormal breath tests, 21 out of 46). Further, the “odds ratio of true clinical response (≧50% improvement in CS) versus placebo” value in assay [2] (all subjects, CI=1.05-6.3) turned out to be 4.3; in assay [2] (subgroup with abnormal breath tests, CI=1.62-14.7), 4.8. Further, the “reduction in composite score (CS)” value in assay [2] (intention-to-treat, all subjects (n=111), neomycin 500 mg twice daily for 10 days) was 35.0±0.7%; in assay [2] (subgroup with abnormal baseline LBT (n=93)) it was 35.4±0.8%. Moreover, in assay [2] (subjects with a normal baseline breath test), the “reduction in composite score (CS) versus placebo” value is reported as “No difference”. Besides, the “subjects with true clinical response (≧50% reported bowel normalization)” value in assay [2] (subjects with abnormal initial breath test) was determined as 55%; in assay [2] (whole group who answered the question (n=91)), 50%. Also, the “odds ratio of true clinical response (≧50% reported bowel normalization) versus placebo” value in assay [2] (subjects with abnormal initial breath test, CI=2.5-39.7) is given as 9.6; in assay [2] (whole group who answered (n=91), CI=1.7-14.4) it was 4.8. Further, the “subjects reporting more than 50% normalization of bowel function” value in assay [2] (subjects with normal follow up LBT after neomycin, 7 out of 8) is 88%.

The values above are taken from patent publication US9192618B2, “Method of treating constipation-predominant irritable bowel syndrome” (Cedars-Sinai Medical Center, priority 2002, dated 2015).
